This is an account of results in patent US9938262B2, “Benzamides” (Merck Patent GmbH, priority 2011, dated 2018).

In general, pEC50 refers to −log10 of the EC50, conventionally taken in molar units.

pEC50: −log10 of the molar value. Bounds are passed on as bounds.

The target of the assay is T1, FSHR (Homo sapiens, UniProt P23945).
T1 construct: expressed in transfected cells; host or cells: CHO (Cho-FSHR-LUC-1-1-43)
T1 sequence (P23945 18-695): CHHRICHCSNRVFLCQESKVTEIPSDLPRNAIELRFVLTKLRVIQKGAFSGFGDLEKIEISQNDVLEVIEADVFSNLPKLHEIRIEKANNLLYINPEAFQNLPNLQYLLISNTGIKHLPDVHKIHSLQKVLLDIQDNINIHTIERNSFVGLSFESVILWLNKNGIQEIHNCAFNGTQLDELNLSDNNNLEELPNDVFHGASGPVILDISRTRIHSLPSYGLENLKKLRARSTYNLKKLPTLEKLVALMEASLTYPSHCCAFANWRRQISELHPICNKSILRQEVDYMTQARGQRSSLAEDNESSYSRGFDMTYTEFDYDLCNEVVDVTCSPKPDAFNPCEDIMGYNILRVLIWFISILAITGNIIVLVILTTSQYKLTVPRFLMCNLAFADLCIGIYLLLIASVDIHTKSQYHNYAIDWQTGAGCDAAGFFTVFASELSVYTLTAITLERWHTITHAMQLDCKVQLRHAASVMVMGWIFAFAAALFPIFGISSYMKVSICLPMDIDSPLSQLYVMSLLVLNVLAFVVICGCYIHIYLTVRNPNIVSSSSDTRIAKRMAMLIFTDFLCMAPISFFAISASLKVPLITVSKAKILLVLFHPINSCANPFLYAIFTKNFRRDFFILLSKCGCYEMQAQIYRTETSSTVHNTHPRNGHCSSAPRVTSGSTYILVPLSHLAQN
T1 sequence (P01215 25-116 partner): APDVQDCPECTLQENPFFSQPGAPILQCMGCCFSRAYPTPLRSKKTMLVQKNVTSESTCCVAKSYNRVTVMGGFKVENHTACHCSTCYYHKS
T1 sequence (P01225 19-129 partner): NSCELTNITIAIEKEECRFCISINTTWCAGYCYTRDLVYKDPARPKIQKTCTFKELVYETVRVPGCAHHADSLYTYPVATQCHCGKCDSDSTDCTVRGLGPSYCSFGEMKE
The assay is described as follows: EC50 of cyclic AMP production in CHO FSHR cells + EC20 FSH (Assay A). Format: cell-based. Conditions: CHO FSHR cells + EC20 FSH; Table 2; read-out: Assay A EC50 of cyclic AMP production. In short, it runs like this: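 cAMP HTRF ratio (665/620 nm) read after 1 h, 37 °C exposure of CHO-FSHR cells to compound in presence of EC20 FSH ([…]) and IBMX 200 μM. Responses given relative to FSH standard maximum; EC50 derived.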
With `Cc1ccccc1N1CCN(c2ccc(C(=O)Nc3ccnn3CC3CCOC3)cc2NC(=O)c2coc(C3CC3)n2)CC1` (stereo not shown) [Compound 412], the pEC50 was 5.00 to 6.00.

With `Cc1cncnc1N1CCN(c2ccc(C(=O)NCCCN3CCCC3=O)cc2NC(=O)c2coc(C3CC3)n2)CC1` [Compound 413], the pEC50 is 5.00 to 6.00.

Turning to `Cc1ccccc1C1=CCN(c2ccc(C(=O)NCCCN3CCCC3=O)cc2NC(=O)c2coc(C3CC3)n2)CC1` [Compound 414], the pEC50 is 6.00 to 7.00.

Consider `Cc1ccccc1N1CCN(c2ccc(C(=O)NCCCN3CCCC3=O)cc2NC(=O)c2nccn2C)CC1` [Compound 415], for which the pEC50 was < 5.00.

`Cc1ccccc1N1CCN(c2ccc(C(=O)NCCCNC(=O)OC(C)(C)C)cc2NC(=O)c2coc(C3CC3)n2)CC1` [Compound 416]: the pEC50 was 6.00 to 7.00.

As to `Cc1ccccc1N1CCN(c2ccc(C(=O)NCCCN)cc2NC(=O)c2coc(C3CC3)n2)CC1` [Compound 417], the pEC50 is 5.00 to 6.00.

On to `Cc1ccccc1N1CCN(c2ccc(C(=O)NCCCC(=O)N(C)C)cc2NC(=O)c2coc(C3CC3)n2)CC1` [Compound 418], for which the pEC50 is 6.00 to 7.00.

On to `Cc1ccc(C(=O)Nc2cc(C(=O)NCCCN3CCCC3=O)ccc2N2CCN(c3ncncc3C)CC2)o1` [Compound 419], for which the pEC50 is < 5.00.

Regarding `Cc1cncnc1N1CCN(c2ccc(C(=O)NCCCN3CCCC3=O)cc2NC(=O)c2ccco2)CC1` [Compound 420], the negative-log EC50 (pEC50) is < 5.00.

Regarding `Cc1ccccc1N1CCN(c2ccc(C(=O)NCCCN3CCCC3=O)cc2NC(=O)c2cncn2C)CC1` [Compound 421], the negative logarithm of the EC50 (pEC50) was < 5.00.

For `Cc1ccccc1N1CCN(c2ccc(C(=O)NCCCN3CCCC3=O)cc2NC(=O)c2coc(CN(C)C)n2)CC1` [Compound 422], the pEC50 was < 5.00.

In the case of `Cc1ccc(C(=O)Nc2cc(C(=O)NCCCN3CCCC3=O)ccc2N2CCC(N(C)c3ccccc3)CC2)o1` [Compound 423], the pEC50 is < 5.00.

Turning to `CC(=O)NCCOCCOCCNC(=O)c1ccc(N2CCN(c3ccccc3C)CC2)c(NC(=O)c2coc(C3CC3)n2)c1` [Compound 424], the pEC50 was 6.00 to 7.00.

As to `Cc1ccccc1N1CCN(c2ccc(C(=O)NCCCNC(=O)NC(C)C)cc2NC(=O)c2coc(C3CC3)n2)CC1` [Compound 425], the pEC50 was 6.00 to 7.00.

As for `C=CCNC(=O)NCCCNC(=O)c1ccc(N2CCN(c3ccccc3C)CC2)c(NC(=O)c2coc(C3CC3)n2)c1` [Compound 426], the pEC50 is 6.00 to 7.00.

Consider `CCCCNC(=O)NCCCNC(=O)c1ccc(N2CCN(c3ccccc3C)CC2)c(NC(=O)c2coc(C3CC3)n2)c1` [Compound 427], for which the pEC50 was 6.00 to 7.00.

Regarding `Cc1ccccc1N1CCN(c2ccc(C(=O)NCCCNC(=O)Nc3ccc(C(F)(F)F)cc3)cc2NC(=O)c2coc(C3CC3)n2)CC1` [Compound 428], the pEC50 is < 5.00.

`Cc1ccccc1N1CCN(c2ccc(C(=O)NCCCN3CCCC3=O)cc2NCc2cccc3cccnc23)CC1` [Compound 429]: the pEC50 is 6.00 to 7.00.

Take `Cc1cnc(CCCNC(=O)c2ccc(N3CCN(c4ccccc4C)CC3)c(NC(=O)c3coc(C4CC4)n3)c2)s1` [Compound 430]: the pEC50 is 6.00 to 7.00.

Turning to `O=C(NCCCN1CCCC1=O)c1ccc(N2CCN(C(=O)C3CC3)CC2)c(NC(=O)c2coc(C3CC3)n2)c1` [Compound 431], the pEC50 was < 5.00.

As for `CC(C)C(=O)N1CCN(c2ccc(C(=O)NCCCN3CCCC3=O)cc2NC(=O)c2coc(C3CC3)n2)CC1` [Compound 432], the pEC50 was 5.00 to 6.00.

Regarding `CCCNC(=O)NCCCNC(=O)c1ccc(N2CCN(c3ccccc3C)CC2)c(NC(=O)c2coc(C3CC3)n2)c1` [Compound 433], the pEC50 is 6.00 to 7.00.

Consider `Cc1ccccc1N1CCN(c2ccc(C(=O)NCCCNC(=O)c3ccccc3)cc2NC(=O)c2coc(C3CC3)n2)CC1` [Compound 434], for which the pEC50 was 6.00 to 7.00.

Regarding `Cc1ccccc1N1CCN(c2ccc(C(=O)NCCCN3CCCC3=O)cc2NC(=O)c2coc(C3CC3)n2)CC1` [Compound 436], the pEC50 is 6.00 to 7.00.

Consider `Cc1ccccc1N1CCN(c2ccc(C(=O)NCCc3cccc(CN(C)C)c3)cc2NC(=O)c2ccco2)CC1` [Compound 437], for which the pEC50 is 6.00 to 7.00.

On to `Cc1noc(CCCNC(=O)c2ccc(N3CCN(c4ccccc4C)CC3)c(NC(=O)c3coc(C4CC4)n3)c2)n1` [Compound 438], for which the negative-log EC50 (pEC50) was 6.00 to 7.00.

With `Cc1cccnc1N1CCN(c2ccc(C(=O)NCCCN3CCCC3=O)cc2NC(=O)c2coc(C3CC3)n2)CC1` [Compound 439], the pEC50 was > 7.00.

With `Cc1ccccc1N1CCN(c2ccc(C(=O)NCCCN3CCCC3=O)cc2NC(=O)c2ncc[nH]2)CC1` [Compound 440], the pEC50 was 6.00 to 7.00.

As for `Cc1ccccc1N1CCN(c2ccc(C(=O)NCCCNC(=O)C3CCOCC3)cc2NC(=O)c2coc(C3CC3)n2)CC1` [Compound 441], the pEC50 is > 7.00.

As for `Cc1ccccc1N1CCN(c2ccc(C(=O)NCCCNC(=O)c3ccncc3)cc2NC(=O)c2coc(C3CC3)n2)CC1` [Compound 442], the negative-log EC50 (pEC50) is 6.00 to 7.00.

Regarding `Cc1cccc(C(=O)NCCCNC(=O)c2ccc(N3CCN(c4ccccc4C)CC3)c(NC(=O)c3coc(C4CC4)n3)c2)n1` [Compound 443], the pEC50 is 6.00 to 7.00.

In the case of `Cc1cccnc1N1CCN(c2ccc(C(=O)NCCc3c[nH]cn3)cc2NC(=O)c2coc(C3CC3)n2)CC1` [Compound 444], the pEC50 was 6.00 to 7.00.

`CCC(=O)NCCCNC(=O)c1ccc(N2CCN(c3ccccc3C)CC2)c(NC(=O)c2coc(C3CC3)n2)c1` [Compound 445]: the pEC50 was > 7.00.

For the compound `Cc1ccccc1N1CCN(c2ccc(C(=O)NCCCNC(=O)C(C)C)cc2NC(=O)c2coc(C3CC3)n2)CC1` [Compound 446], the pEC50 was 6.00 to 7.00.

In the case of `Cc1ccccc1N1CCN(c2ccc(C(=O)NCCCNC(=O)C3CC3)cc2NC(=O)c2coc(C3CC3)n2)CC1` [Compound 447], the pEC50 was 6.00 to 7.00.

For the compound `Cc1ccccc1N1CCN(c2ccc(C(=O)NCCCNC(=O)C3CCC3)cc2NC(=O)c2coc(C3CC3)n2)CC1` [Compound 448], the pEC50 was 6.00 to 7.00.

As to `Cc1ccccc1N1CCN(c2ccc(C(=O)NCCCN3CCCC3=O)cc2NC(=O)c2ccc(C3CC3)o2)CC1` [Compound 449], the pEC50 was 6.00 to 7.00.

Turning to `Cc1ccccc1N1CCN(c2ccc(C(=O)NCCCN3CCCC3=O)cc2NC(=O)C(F)(F)F)CC1` [Compound 451], the pEC50 was 6.00 to 7.00.

With `Cc1cnccc1N1CCN(c2ccc(C(=O)NCCCN3CCCC3=O)cc2NC(=O)c2coc(C3CC3)n2)CC1` [Compound 452], the pEC50 is 5.00 to 6.00.

Turning to `Cc1ccccc1N1CCN(c2ccc(C(=O)NCCC#N)cc2NC(=O)c2coc(C3CC3)n2)CC1` [Compound 453], the pEC50 was 6.00 to 7.00.

Take `Cc1ccccc1N1CCN(c2ccc(C(=O)NCc3cccc(CN4CCCC4)c3)cc2NC(=O)c2ccco2)CC1` [Compound 454]: the pEC50 was 6.00 to 7.00.

Take `Cc1ccccc1N1CCN(c2ccc(C(=O)NCc3ccc(CN(C)C)cc3)cc2NC(=O)c2ccco2)CC1` [Compound 455]: the pEC50 was 6.00 to 7.00.

On to `Cc1ccccc1N1CCN(c2ccc(C(=O)NCc3ccccc3CN(C)C)cc2NC(=O)c2ccco2)CC1` [Compound 456], for which the pEC50 is 6.00 to 7.00.

With `Cc1cnccc1N1CCN(c2ccc(C(=O)NCCc3cnc[nH]3)cc2NC(=O)c2coc(C3CC3)n2)CC1` [Compound 457], the pEC50 was 5.00 to 6.00.

Regarding `Cc1cncnc1N1CCN(c2ccc(C(=O)NCCCN3CCOC3=O)cc2NC(=O)c2coc(C3CC3)n2)CC1` [Compound 460], the pEC50 was 6.00 to 7.00.

In the case of `Cc1ccccc1N1CCN(c2ccc(C(=O)NCCCN3CCC(O)C3)cc2NC(=O)c2coc(C3CC3)n2)CC1` (stereo not shown) [Compound 461], the pEC50 was 6.00 to 7.00.

For the compound `Cc1cncnc1N1CCN(c2ccc(C(=O)NCCc3cn(C)cn3)cc2NC(=O)c2coc(C3CC3)n2)CC1` [Compound 462], the pEC50 was 5.00 to 6.00.

In the case of `Cc1ccc(C(=O)Nc2cc(C(=O)NCCCN3CCCC3=O)ccc2N2CCN(c3ncccc3C)CC2)o1` [Compound 463], the pEC50 was 6.00 to 7.00.

With `Cc1ccc(C(=O)Nc2cc(C(=O)NCCc3cn(C)cn3)ccc2N2CCN(c3ncccc3C)CC2)o1` [Compound 464], the pEC50 was 5.00 to 6.00.

Turning to `Cc1ccccc1N1CCN(c2ccc(C(=O)NCc3cccc(CN(C)C)n3)cc2NC(=O)c2coc(C3CC3)n2)CC1` [Compound 465], the pEC50 was 6.00 to 7.00.

With `Cc1ccccc1N1CCN(c2ccc(C(=O)NCCCN3CCCC3=O)cc2NC(=O)c2nnc(C3CC3)o2)CC1` [Compound 466], the pEC50 is 5.00 to 6.00.

`Cc1ccccc1N1CCN(c2ccc(C(=O)NCC(O)CN3CCCC3=O)cc2NC(=O)c2ccco2)CC1` (stereo not shown) [Compound 467]: the pEC50 is > 7.00.

As to `Cc1ccccc1N1CCN(c2ccc(C(=O)NCCCN3CCNC3=O)cc2NC(=O)c2ccco2)CC1` [Compound 468], the pEC50 is > 7.00.

As for `Cc1ccccc1N1CCN(c2ccc(C(=O)NCCCc3cccnc3)cc2NC(=O)c2ccco2)CC1` [Compound 469], the pEC50 is 6.00 to 7.00.

On to `Cc1ccccc1N1CCN(c2ccc(C(=O)NCCCN3CCCCC3=O)cc2NC(=O)c2ccco2)CC1` [Compound 470], for which the pEC50 is 6.00 to 7.00.

For the compound `Cc1ccccc1N1CCN(c2ccc(C(=O)NCc3cccc(CN4CCOCC4)c3)cc2NC(=O)c2ccco2)CC1` [Compound 471], the pEC50 is 6.00 to 7.00.

Regarding `Cc1ccccc1N1CCN(c2ccc(C(=O)NCCCCN3CCOCC3)cc2NC(=O)c2coc(C3CC3)n2)CC1` [Compound 472], the negative logarithm of the EC50 (pEC50) is 6.00 to 7.00.

For `CCN(CC)Cc1cccc(CNC(=O)c2ccc(N3CCN(c4ccccc4C)CC3)c(NC(=O)c3ccco3)c2)c1` [Compound 473], the pEC50 was 6.00 to 7.00.

For the compound `Cc1ccccc1N1CCN(c2ccc(C(=O)NCc3cccc(CN(C)C)n3)cc2NC(=O)c2ccco2)CC1` [Compound 474], the pEC50 is > 7.00.

On to `Cc1ccc(C(=O)Nc2cc(C(=O)NCCCN3CCCC3=O)ccc2N2CCN(c3ccncc3C)CC2)o1` [Compound 475], for which the pEC50 is < 5.00.

`Cc1ccccc1N1CCN(c2ccc(C(=O)NCCCN3C(=O)[C@H]4C[C@@H]3C(O)C4O)cc2NC(=O)c2ccco2)CC1` (stereo partly shown) [Compound 477]: the pEC50 was > 7.00.
